The source made the active and inactive calls. No cut-off for these calls is given here.
Assays:
MV4-11 [1] = test: Induction of apoptosis in human MV4-11 cells assessed as late apoptotic cells at 5 uM measured after 2 hrs by Annexin V-FITC/7-AAD staining based flow cytometric analysis (reference value: 0.98%); type: functional
[2] = molecular target: T1, Tyrosine-protein phosphatase non-receptor type 11 (Homo sapiens) (UniProt Q06124); test: Inhibition of SHP2 in human NCI-H358 cells assessed as reduction in Akt phosphorylation level at upto 20 uM measured after 8 hrs by Western blot analysis; type: cell-based
T1 sequence (whole entry): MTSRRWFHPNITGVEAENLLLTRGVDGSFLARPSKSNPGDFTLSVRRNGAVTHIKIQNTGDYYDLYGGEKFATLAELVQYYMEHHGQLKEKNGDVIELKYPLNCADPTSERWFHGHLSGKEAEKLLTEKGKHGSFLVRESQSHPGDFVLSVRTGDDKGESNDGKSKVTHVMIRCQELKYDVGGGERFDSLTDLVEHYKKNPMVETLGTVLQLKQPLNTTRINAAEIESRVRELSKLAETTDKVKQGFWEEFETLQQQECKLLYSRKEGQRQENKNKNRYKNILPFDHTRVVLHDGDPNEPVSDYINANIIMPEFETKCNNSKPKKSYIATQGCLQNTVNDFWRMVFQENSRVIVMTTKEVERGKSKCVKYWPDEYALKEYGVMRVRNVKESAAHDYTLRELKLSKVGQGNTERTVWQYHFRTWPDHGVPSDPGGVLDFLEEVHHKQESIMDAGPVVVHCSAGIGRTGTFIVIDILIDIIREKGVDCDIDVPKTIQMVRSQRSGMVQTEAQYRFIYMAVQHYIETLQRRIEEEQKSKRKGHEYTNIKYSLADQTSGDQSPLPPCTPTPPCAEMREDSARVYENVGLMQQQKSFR

MV4-11 [3] = test: Induction of apoptosis in human MV4-11 cells assessed as late apoptotic cells at 5 uM measured after 4 hrs by Annexin V-FITC/7-AAD staining based flow cytometric analysis (reference value: 0.98%); type: functional
[4] = molecular target: T1, Tyrosine-protein phosphatase non-receptor type 11 (Homo sapiens); test: Inhibition of SHP2 in human NCI-H358 cells assessed as reduction in Erk1/2 phosphorylation level at upto 20 uM measured after 8 hrs by Western blot analysis; type: cell-based
MV4-11 [5] = test: Induction of apoptosis in human MV4-11 cells assessed as early apoptotic cells at 2.5 uM measured after 4 hrs by Annexin V-FITC/7-AAD staining based flow cytometric analysis (reference value: 2.48%); type: functional
[6] = molecular target: T2, Tyrosine-protein phosphatase non-receptor type 11 (Homo sapiens, UniProt Q06124); test: Inhibition of full length wild type recombinant human SHP2 (1 to 525 residues) using DIPMUP as substrate preincubated for 30 mins followed by substrate addition and measured after 30 mins by fluorescence based analysis
T2 sequence (Q06124 whole entry): T1 sequence (whole entry)

MV4-11 [7] = test: Induction of apoptosis in human MV4-11 cells assessed as viable cells at 5 uM measured after 2 hrs by Annexin V-FITC/7-AAD staining based flow cytometric analysis (reference value: 96.8%); type: functional; conditions: read-out: Activity
MV4-11 [8] = test: Antiproliferative activity against human MV4-11 cells assessed as inhibition of cell growth measured after 72 hrs by CCK8 method; type: functional, cell-based; conditions: MV4-11, 72 h
NCI-H358 = test: Antiproliferative activity against human NCI-H358 cells assessed as inhibition of cell growth measured after 72 hrs by CCK8 method; type: functional, cell-based; conditions: NCI-H358, 72 h
[9] = molecular target: T1, Tyrosine-protein phosphatase non-receptor type 11 (Homo sapiens); test: Inhibition of SHP2 in human MV4-11 cells assessed as reduction in Akt phosphorylation level at upto 20 uM measured after 4 hrs by Western blot analysis; type: cell-based
[10] = molecular target: Tyrosine-protein phosphatase non-receptor type 6 (Homo sapiens, UniProt P29350); test: Inhibition of full length recombinant human SHP1 (1 to 570 residues) using DIPMUP as substrate preincubated for 30 mins followed by substrate addition and measured after 30 mins by fluorescence based analysis
MV4-11 [11] = test: Induction of apoptosis in human MV4-11 cells assessed as necrotic cells at 2.5 uM measured after 4 hrs by Annexin V-FITC/7-AAD staining based flow cytometric analysis (reference value: 0.041%); type: functional
[12] = molecular target: Tyrosine-protein phosphatase non-receptor type 11 (Homo sapiens, UniProt Q06124, E76K); test: Inhibition of full length recombinant human SHP2 E76K mutant (1 to 525 residues) using DIPMUP as substrate preincubated for 30 mins followed by substrate addition and measured after 30 mins by fluorescence based analysis
MV4-11 [13] = test: Induction of apoptosis in human MV4-11 cells assessed as late apoptotic cells at 5 uM measured after 4 hrs by Annexin V-FITC/7-AAD staining based flow cytometric analysis (reference value: 1.58%); type: functional
MV4-11 [14] = test: Induction of apoptosis in human MV4-11 cells assessed as early apoptotic cells at 5 uM measured after 1 hrs by Annexin V-FITC/7-AAD staining based flow cytometric analysis (reference value: 2.13%); type: functional
[15] = molecular target: T1, Tyrosine-protein phosphatase non-receptor type 11 (Homo sapiens); test: Inhibition of SHP2 in human MV4-11 cells assessed as reduction in Erk1/2 phosphorylation level at upto 20 uM measured after 4 hrs by Western blot analysis; type: cell-based
MV4-11 [16] = test: Induction of apoptosis in human MV4-11 cells assessed as viable cells at 1.25 uM measured after 4 hrs by Annexin V-FITC/7-AAD staining based flow cytometric analysis (reference value: 95.9%); type: functional; conditions: read-out: Activity
MV4-11 [17] = test: Induction of apoptosis in human MV4-11 cells assessed as viable cells at 5 uM measured after 4 hrs by Annexin V-FITC/7-AAD staining based flow cytometric analysis (reference value: 96.8%); type: functional; conditions: read-out: Activity
MV4-11 [18] = test: Induction of apoptosis in human MV4-11 cells assessed as early apoptotic cells at 5 uM measured after 2 hrs by Annexin V-FITC/7-AAD staining based flow cytometric analysis (reference value: 2.13%); type: functional
MV4-11 [19] = test: Induction of apoptosis in human MV4-11 cells assessed as early apoptotic cells at 5 uM measured after 4 hrs by Annexin V-FITC/7-AAD staining based flow cytometric analysis (reference value: 2.48%); type: functional
MV4-11 [20] = test: Induction of apoptosis in human MV4-11 cells assessed as necrotic cells at 1.25 uM measured after 4 hrs by Annexin V-FITC/7-AAD staining based flow cytometric analysis (reference value: 0.041%); type: functional
MV4-11 [21] = test: Induction of apoptosis in human MV4-11 cells assessed as necrotic cells at 5 uM measured after 2 hrs by Annexin V-FITC/7-AAD staining based flow cytometric analysis (reference value: 0.068%); type: functional
MV4-11 [22] = test: Induction of apoptosis in human MV4-11 cells assessed as viable cells at 5 uM measured after 4 hrs by Annexin V-FITC/7-AAD staining based flow cytometric analysis (reference value: 95.9%); type: functional; conditions: read-out: Activity
A549 = test: Antiproliferative activity against human A549 cells assessed as inhibition of cell growth measured after 72 hrs by CCK8 method; type: functional, cell-based; conditions: A549, 72 h
MV4-11 [23] = test: Induction of apoptosis in human MV4-11 cells assessed as late apoptotic cells at 5 uM measured after 1 hrs by Annexin V-FITC/7-AAD staining based flow cytometric analysis (reference value: 0.98%); type: functional
MV4-11 [24] = test: Induction of apoptosis in human MV4-11 cells assessed as early apoptotic cells at 1.25 uM measured after 4 hrs by Annexin V-FITC/7-AAD staining based flow cytometric analysis (reference value: 2.48%); type: functional

Sequence of Tyrosine-protein phosphatase non-receptor type 6 (P29350 whole entry, the tested form may be a part): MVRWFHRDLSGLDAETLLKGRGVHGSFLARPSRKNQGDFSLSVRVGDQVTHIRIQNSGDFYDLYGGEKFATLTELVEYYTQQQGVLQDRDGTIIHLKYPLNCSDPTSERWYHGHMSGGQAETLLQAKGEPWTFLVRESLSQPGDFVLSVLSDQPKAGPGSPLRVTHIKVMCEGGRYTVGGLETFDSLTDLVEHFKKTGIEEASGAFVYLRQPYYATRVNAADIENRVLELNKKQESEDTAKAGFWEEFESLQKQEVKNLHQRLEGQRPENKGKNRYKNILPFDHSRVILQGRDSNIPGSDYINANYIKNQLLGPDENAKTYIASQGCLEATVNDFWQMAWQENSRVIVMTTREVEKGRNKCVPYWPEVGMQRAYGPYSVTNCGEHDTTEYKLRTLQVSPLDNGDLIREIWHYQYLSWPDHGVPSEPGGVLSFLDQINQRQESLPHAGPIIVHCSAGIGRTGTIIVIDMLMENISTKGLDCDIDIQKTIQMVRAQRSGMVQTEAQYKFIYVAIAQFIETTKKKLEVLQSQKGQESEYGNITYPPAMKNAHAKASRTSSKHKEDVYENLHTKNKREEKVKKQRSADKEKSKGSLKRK
Sequence of Tyrosine-protein phosphatase non-receptor type 11 (Homo sapiens, UniProt Q06124, E76K) (Q06124 2-593 E76K limits assumed): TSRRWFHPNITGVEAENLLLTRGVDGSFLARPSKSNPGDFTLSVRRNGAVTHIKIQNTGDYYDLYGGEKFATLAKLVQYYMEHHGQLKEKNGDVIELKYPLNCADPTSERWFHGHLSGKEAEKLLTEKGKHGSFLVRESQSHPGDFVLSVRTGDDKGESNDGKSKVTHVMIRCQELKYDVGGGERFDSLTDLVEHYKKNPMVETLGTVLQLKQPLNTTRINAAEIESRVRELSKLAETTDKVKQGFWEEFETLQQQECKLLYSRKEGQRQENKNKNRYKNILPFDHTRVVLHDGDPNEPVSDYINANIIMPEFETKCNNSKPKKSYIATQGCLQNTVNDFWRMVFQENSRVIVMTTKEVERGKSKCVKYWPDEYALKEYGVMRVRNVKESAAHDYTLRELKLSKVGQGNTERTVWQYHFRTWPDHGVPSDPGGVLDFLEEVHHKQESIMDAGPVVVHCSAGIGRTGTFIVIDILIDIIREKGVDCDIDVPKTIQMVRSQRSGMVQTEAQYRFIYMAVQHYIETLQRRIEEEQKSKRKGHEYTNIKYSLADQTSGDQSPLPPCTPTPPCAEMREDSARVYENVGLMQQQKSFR

## C[C@@H]1OCC2(CCN(c3nnc(Sc4cccc(Cl)c4Cl)s3)CC2)[C@@H]1N
MV4-11 [1]
  Activity: 7.03%
[2]
  inhibition: Active
MV4-11 [3]
  Activity: 7.78%
[4]
  inhibition: Active
MV4-11 [5]
  Activity: 2.09%
[6]
  IC50: 0.84 µM
MV4-11 [7]
  viability at 5 µM: 80.9%
MV4-11 [8]
  IC50: 3.85 µM
NCI-H358
  IC50: 12 µM
[9]
  inhibition: Active
[10]
  IC50: > 50 µM
MV4-11 [11]
  Activity: 0.076%
[12]
  IC50: 6.88 µM
MV4-11 [13]
  Activity: 5.98%
MV4-11 [14]
  Activity: 4.74%
[15]
  inhibition: Active
MV4-11 [16]
  viability at 1.25 µM: 95.9%
MV4-11 [17]
  viability at 5 µM: 80%
MV4-11 [18]
  Activity: 10.9%
MV4-11 [19]
  Activity: 8.42%
MV4-11 [20]
  Activity: 0.12%
MV4-11 [21]
  Activity: 1.17%
MV4-11 [22]
  viability at 5 µM: 84.1%
A549
  IC50: 12.1 µM
MV4-11 [23]
  Activity: 4.39%
MV4-11 [24]
  Activity: 2.04%

— ChEMBL document CHEMBL5620403, “Design, synthesis, activity and molecular dynamics studies of 1,3,4-thiadiazole derivatives as selective allosteric inhibitors of SHP2 for the treatment of cancer” (Eur J Med Chem, 2023)
